We go through 26 compounds from US12637425B2, “Compounds and formulations for treating ophthalmic diseases” (Visus Therapeutics, Inc., priority 2020, dated 2026).

A value given as a limit tells only on which side of the number the result lay.

The assay concerns the target T1, Recombinant cryAB(R120G) protein (Homo sapiens, UniProt P02511, R120G).
T1 sequence (P02511 1-175 R120G): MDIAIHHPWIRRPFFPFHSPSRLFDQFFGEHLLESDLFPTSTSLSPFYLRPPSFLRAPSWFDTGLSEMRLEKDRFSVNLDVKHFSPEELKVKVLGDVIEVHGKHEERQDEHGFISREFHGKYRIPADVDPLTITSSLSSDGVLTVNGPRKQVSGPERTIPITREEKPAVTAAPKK
The experiment in a line: Kinetic turbidity aggregation assay of recombinant cryAB(R120G). The conditions noted are these: for inhibition at 25 µM: read-out: % Inhibition of Protein Aggregation, 25 μM cmpd; for inhibition at 100 µM: 100 μM compound, read-out: % Inhibition of Protein Aggregation, 100 μM cmpd; for IC50: inhibition of cryAB(R120G) protein aggregation; for inhibition at 400 µM: 400 μM compound, read-out: % Inhibition of Protein Aggregation, 400 μM cmpd. Type of assay: biochemical. The protocol:
Example A-1: Kinetic Turbidity Aggregation Assay of Recombinant cryAB(R120)
Recombinant cryAB(R120G) protein was diluted to 100 μM in assay buffer (50 mM Tris, 100 mM NaCl, 5 mM DTT, 0.01% Triton X-100, 0.05% PEG-8000). Compounds were dissolved in DMSO at 10 mM then typically diluted to 2.5 mM in DMSO and serially diluted 2-fold as necessary. To a 384-well black microplate in quadruplicate was added 81 μL assay buffer, followed by 15 μL protein solution, and 4 μL compound to give a final concentration of 15 μM cryAB(R120G) protein in 4% DMSO. […] N.D. is not determined.

[1] abbreviates: 25 μM compound, 15 μM cryAB(R120G), 42° C., absorbance at 550 nm.
The mark [2] stands for this setting: 15 μM cryAB(R120G), 42° C., absorbance at 550 nm.

As to `CCn1nc(C(CNS(=O)(=O)c2ccc3cc[nH]c3c2)N(C)C)c2ccccc21` (stereo not drawn) [Compound 72, N-(2-(dimethylamino)-2-(1-ethyl-1H-indazol-3-yl)ethyl)-1H-indole-6-sulfonamide], the IC50 (commonly the concentration that inhibits the measured activity by half) was 10 to 50 µM. Moreover, the inhibition (usually the drop in the measured response relative to a control, in per cent) at 25 µM under setting [1] stood at 62%. Besides, under setting [2], the inhibition at 100 µM was 98.2%.
As to `CN(C)C(CNS(=O)(=O)c1ccc2ccn(C)c2c1)c1cn(C)c2ccccc12` (stereo not drawn) [Compound 8, N-(2-(dimethylamino)-2-(1-methyl-1H-indol-3-yl)ethyl)-1-methyl-1H-indole-6-sulfonamide], under setting [1], the inhibition at 25 µM was -37%. Under setting [2], the inhibition at 100 µM was -29% and the inhibition at 400 µM came to 74.3%.
Take `Cn1cc([C@H](CNS(=O)(=O)c2ccc3cc[nH]c3c2)N2CC[C@H](c3ccccc3)C2)c2ccccc21` [Compound 61, N-((R)-2-(1-methyl-1H-indol-3-yl)-2-((R)-3-phenylpyrrolidin-1-yl)ethyl)-1H-indole-6-sulfonamide]: the inhibition at 25 µM under setting [1] stood at 1%. Besides, the inhibition at 100 µM under setting [2] was determined as 66.7%.
In the case of `COC1CCN(C(CNS(=O)(=O)c2ccc3cc[nH]c3c2)c2cn(C)c3ccccc23)CC1` (stereo not drawn) [Compound 47, N-(2-(4-methoxypiperidin-1-yl)-2-(1-methyl-1H-indol-3-yl)ethyl)-1H-indole-6-sulfonamide], the inhibition at 25 µM under setting [1] is 32%. Moreover, the inhibition at 100 µM under setting [2] was 86.9%.
Regarding `CN1CCN(S(=O)(=O)c2ccc3cc[nH]c3c2)CC1c1cn(C)c2ccccc12` (stereo not drawn) [Compound 4, 3-(4-((1H-indol-6-yl)sulfonyl)-1-methylpiperazin-2-yl)-1-methyl-1H-indole], the inhibition at 25 µM under setting [1] amounted to 66.7%. Moreover, under setting [2], the inhibition at 100 µM worked out at 62.8% and the inhibition at 400 µM worked out at 91.8%.
As to `Cn1cc([C@H](CNS(=O)(=O)c2ccc3cc[nH]c3c2)N2CCCC2)c2cnccc21` [Compound 81, (R)-N-(2-(1-methyl-1H-pyrrolo[3,2-c]pyridin-3-yl)-2-(pyrrolidin-1-yl)ethyl)-1H-indole-6-sulfonamide], the inhibition at 25 µM under setting [1] is -12%. Besides, under setting [2], the inhibition at 100 µM was 23%.
Take `Cn1nc([C@@H](CNS(=O)(=O)c2ccc3cc[nH]c3c2)N2CCCC2)c2ccccc21` [Compound 89, (R)-N-(2-(1-methyl-1H-indazol-3-yl)-2-(pyrrolidin-1-yl)ethyl)-1H-indole-6-sulfonamide]: the IC50 is at most 10 µM. Moreover, the inhibition at 25 µM under setting [1] was found to be 98.4%. Further, the inhibition at 100 µM under setting [2] worked out at 99.7%.
For the compound `Cn1cc(C(CNS(=O)(=O)c2ccc3cc[nH]c3c2)N2CCCC2)c2ccccc21` (stereo not drawn) [Compound 5, N-(2-(1-methyl-1H-indol-3-yl)-2-(pyrrolidin-1-yl)ethyl)-1H-indole-6-sulfonamide], the concentration for half-maximal inhibition (IC50) is at most 10 µM. Further, the inhibition at 25 µM under setting [1] amounted to 99.6%. For the same compound, under setting [2], the inhibition at 100 µM was determined as 99.8% and the inhibition at 400 µM came to 97.9%.
On to `Cn1cc(C(CNS(=O)(=O)c2ccc3cc[nH]c3c2)Nc2ccncc2)c2ccccc21` (stereo not drawn) [Compound 49, N-(2-(1-methyl-1H-indol-3-yl)-2-(pyridin-4-ylamino)ethyl)-1H-indole-6-sulfonamide], for which the 50% inhibitory concentration (IC50) was 10 to 50 µM. In addition, the inhibition at 25 µM under setting [1] was 47%. Under setting [2], the inhibition at 100 µM came out at 99.2%.
Turning to `Cn1cc(C(CNS(=O)(=O)c2ccc3cc[nH]c3c2)NCc2ccccc2)c2ccccc21` (stereo not drawn) [Compound 50, N-(2-(benzylamino)-2-(1-methyl-1H-indol-3-yl)ethyl)-1H-indole-6-sulfonamide], the IC50 was at most 10 µM. Further, the inhibition at 25 µM under setting [1] worked out at 95%. Further, under setting [2], the inhibition at 100 µM was determined as 94.1%.
In the case of `COc1ccc2[nH]ccc2c1S(=O)(=O)NCC(c1cn(C)c2ccccc12)N(C)C` (stereo not drawn) [Compound 97, N-(2-(dimethylamino)-2-(1-methyl-1H-indol-3-yl)ethyl)-5-methoxy-1H-indole-4-sulfonamide], the inhibition at 25 µM under setting [1] was -45%. Also, the inhibition at 100 µM under setting [2] came out at 58.8%.
Turning to `CN(C)C(CNS(=O)(=O)c1ccc2cc[nH]c2c1)c1cccc2ncccc12` (stereo not drawn) [Compound 17, N-(2-(dimethylamino)-2-(quinolin-5-yl)ethyl)-1H-indole-6-sulfonamide], the inhibition at 25 µM under setting [1] is -10.7%. Further, under setting [2], the inhibition at 100 µM was -13% and the inhibition at 400 µM is 63.5%.
Regarding `Cn1cc([C@H](CNS(=O)(=O)c2ccc3cc[nH]c3c2)N2CC[C@@H](c3ccccc3)C2)c2ccccc21` [Compound 59, N-((R)-2-(1-methyl-1H-indol-3-yl)-2-((S)-3-phenylpyrrolidin-1-yl)ethyl)-1H-indole-6-sulfonamide], under setting [1], the inhibition at 25 µM worked out at 2%. The inhibition at 100 µM under setting [2] worked out at 49.8%.
As to `CO[C@@H]1CCN([C@H](CNS(=O)(=O)c2ccc3cc[nH]c3c2)c2cn(C)c3ccccc23)C1` [Compound 74, N-((S)-2-((R)-3-methoxypyrrolidin-1-yl)-2-(1-methyl-1H-indol-3-yl)ethyl)-1H-indole-6-sulfonamide], the inhibition at 25 µM under setting [1] was found to be 40%. The inhibition at 100 µM under setting [2] turned out to be 99.9%.
For the compound `CN(C)C(CNS(=O)(=O)c1ccc2cc[nH]c2c1)c1ccc2cc[nH]c2n1` (stereo not drawn) [Compound 15, N-(2-(dimethylamino)-2-(1H-pyrrolo[2,3-b]pyridin-6-yl)ethyl)-1H-indole-6-sulfonamide], the inhibition at 25 µM under setting [1] amounted to 50%. For the same compound, under setting [2], the inhibition at 100 µM is 85.8% and the inhibition at 400 µM was 67.6%.
Take `Cc1cccc2c(C(CNS(=O)(=O)c3ccc4cc[nH]c4c3)N(C)C)cn(C)c12` (stereo not drawn) [Compound 73, N-(2-(1,7-dimethyl-1H-indol-3-yl)-2-(dimethylamino)ethyl)-1H-indole-6-sulfonamide]: under setting [1], the inhibition at 25 µM is 57%. For the same compound, under setting [2], the inhibition at 100 µM was 99.5%.
On the same counts, the results for `Cn1cc(C(CNS(=O)(=O)c2ccc3cc[nH]c3c2)N2CCC(O)CC2)c2ccccc21` (stereo not drawn) [Compound 40, N-(2-(4-hydroxypiperidin-1-yl)-2-(1-methyl-1H-indol-3-yl)ethyl)-1H-indole-6-sulfonamide] are 16% and 79.7%.
Consider `CN1CCN(C(CNS(=O)(=O)c2ccc3cc[nH]c3c2)c2cn(C)c3ccccc23)CC1` (stereo not drawn) [Compound 39, N-(2-(1-methyl-1H-indol-3-yl)-2-(4-methylpiperazin-1-yl)ethyl)-1H-indole-6-sulfonamide], for which, under setting [1], the inhibition at 25 µM was determined as 18%. Moreover, the inhibition at 100 µM under setting [2] was 82.5%.
Turning to `Cn1cc(C(CNS(=O)(=O)c2cccc3[nH]ccc23)N2CCCC2)c2ccccc21` (stereo not drawn) [Compound 27, N-(2-(1-methyl-1H-indol-3-yl)-2-(pyrrolidin-1-yl)ethyl)-1H-indole-4-sulfonamide], under setting [1], the “% Inhibition of Protein Aggregation, 25 μM cmpd” value was −35%. Moreover, the inhibition at 100 µM under setting [2] came out at 85%.
`C[C@@H]1CCN([C@@H](CNS(=O)(=O)c2ccc3cc[nH]c3c2)c2cn(C)c3ccccc23)C1` [Compound 77, N-((R)-2-(1-methyl-1H-indol-3-yl)-2-((R)-3-methylpyrrolidin-1-yl)ethyl)-1H-indole-6-sulfonamide]: under setting [1], the inhibition at 25 µM worked out at 88%. Under setting [2], the inhibition at 100 µM turned out to be 100%.
`CN(C)C(CNS(=O)(=O)c1ccc2cc[nH]c2c1)c1cn(C)c2ccc(Cl)cc12` (stereo not drawn) [Compound 42, N-(2-(5-chloro-1-methyl-1H-indol-3-yl)-2-(dimethylamino)ethyl)-1H-indole-6-sulfonamide]: the IC50 is at most 10 µM. In addition, under setting [1], the inhibition at 25 µM turned out to be 91%. In addition, the inhibition at 100 µM under setting [2] worked out at 96.2%.
`CN(C)C(CNS(=O)(=O)c1ccc2ncsc2c1)c1cn(C)c2ccccc12` (stereo not drawn) [Compound 11, N-(2-(dimethylamino)-2-(1-methyl-1H-indol-3-yl)ethyl)benzo[d]thiazole-6-sulfonamide]: the inhibition at 25 µM under setting [1] is -6%. In addition, under setting [2], the inhibition at 100 µM was -20% and the inhibition at 400 µM is 20.5%.
`COc1ccc2c(c1)c(C(CNS(=O)(=O)c1ccc3cc[nH]c3c1)N(C)C)cn2C` (stereo not drawn) [Compound 18, N-(2-(dimethylamino)-2-(5-methoxy-1-methyl-1H-indol-3-yl)ethyl)-1H-indole-6-sulfonamide]: the IC50 lay within 10 to 50 µM. The inhibition at 25 µM under setting [1] amounted to 68%. For the same compound, under setting [2], the inhibition at 100 µM came out at 52.3% and the inhibition at 400 µM came out at 98.5%.
Regarding `Cn1cc([C@@H](CNS(=O)(=O)c2ccc3cc[nH]c3c2)NCc2cncs2)c2ccccc21` [Compound 84, (S)-N-(2-(1-methyl-1H-indol-3-yl)-2-((thiazol-5-ylmethyl)amino)ethyl)-1H-indole-6-sulfonamide], the inhibition at 25 µM under setting [1] came out at 25%. Under setting [2], the inhibition at 100 µM turned out to be 71.8%.
In the same order, the values of `Cn1cc([C@@H](CNS(=O)(=O)c2ccc3cc[nH]c3c2)N2CCC2)c2ccccc21` [Compound 101, (S)-N-(2-(azetidin-1-yl)-2-(1-methyl-1H-indol-3-yl)ethyl)-1H-indole-6-sulfonamide] are 63% and 97.6%.
In the same order, the values of `O=S(=O)(NC[C@H](c1cnc2ccccn12)N1CCCC1)c1ccc2cc[nH]c2c1` [Compound 78, (R)-N-(2-(imidazo[1,2-a]pyridin-3-yl)-2-(pyrrolidin-1-yl)ethyl)-1H-indole-6-sulfonamide] are 23% and 99.6%.
